Where a SMILES comes first, the peptide text is derived from it. Where no end group is shown, it is not given here. [ ]: non-standard residue; d: D form. The star is where a group is joined. Desaminotyrosyl = O=C(CCc1ccc(O)cc1)*; NMeY = CN[C@@H](Cc1ccc(O)cc1)C(=O)O; Aib = CC(C)(N)C(=O)O; Ava = NCCCCC(=O)O

For the first test, the target named is Herpes Simplex Virus Ribonucleotide Reductase (HSV RR) (Human herpesvirus 2, UniProt P89462). Briefly: biochemical.
Sequence of Herpes Simplex Virus Ribonucleotide Reductase (HSV RR) (P89462 whole entry): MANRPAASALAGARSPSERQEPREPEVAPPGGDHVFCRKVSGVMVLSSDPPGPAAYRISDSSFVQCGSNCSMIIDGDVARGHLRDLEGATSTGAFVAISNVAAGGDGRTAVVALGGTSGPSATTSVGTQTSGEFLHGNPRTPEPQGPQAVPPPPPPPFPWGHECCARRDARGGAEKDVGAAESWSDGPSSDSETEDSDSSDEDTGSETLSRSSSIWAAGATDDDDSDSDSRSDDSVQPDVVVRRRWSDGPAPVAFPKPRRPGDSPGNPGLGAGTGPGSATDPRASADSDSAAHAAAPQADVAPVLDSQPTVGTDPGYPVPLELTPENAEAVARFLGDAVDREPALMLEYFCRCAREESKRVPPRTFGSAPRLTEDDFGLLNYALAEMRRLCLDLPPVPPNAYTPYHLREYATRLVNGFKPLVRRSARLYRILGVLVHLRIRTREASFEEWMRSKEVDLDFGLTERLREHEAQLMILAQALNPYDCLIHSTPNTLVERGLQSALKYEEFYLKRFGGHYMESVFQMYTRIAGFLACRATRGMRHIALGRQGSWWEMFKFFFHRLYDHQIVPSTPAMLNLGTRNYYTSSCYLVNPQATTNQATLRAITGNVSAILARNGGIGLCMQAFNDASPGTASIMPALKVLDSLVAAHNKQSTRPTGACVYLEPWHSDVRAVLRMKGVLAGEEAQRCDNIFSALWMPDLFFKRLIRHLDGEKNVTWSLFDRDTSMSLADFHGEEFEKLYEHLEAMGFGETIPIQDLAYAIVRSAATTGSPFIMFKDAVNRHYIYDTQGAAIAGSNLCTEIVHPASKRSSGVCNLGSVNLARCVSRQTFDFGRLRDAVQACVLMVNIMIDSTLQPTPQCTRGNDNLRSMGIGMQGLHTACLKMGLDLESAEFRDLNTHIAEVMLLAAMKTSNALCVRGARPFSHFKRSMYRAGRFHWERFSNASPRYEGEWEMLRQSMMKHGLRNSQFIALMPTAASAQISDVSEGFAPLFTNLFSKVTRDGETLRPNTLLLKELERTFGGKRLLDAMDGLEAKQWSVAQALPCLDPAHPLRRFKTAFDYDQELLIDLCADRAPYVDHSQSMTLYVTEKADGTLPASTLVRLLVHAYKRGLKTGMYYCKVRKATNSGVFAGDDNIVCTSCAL
Conditions: not given
The protocol:
HSV RR was purified from Baby Hamster Kidney cells that were cultured with HSV2 Strain 186. After infection, cells were harvested and lysed. Crude HSV RR was prepared as described by Huszar et al., J. Virol. 37: 580-588(1981) then subjected to further purification by hydroxyapatite column chromotography.
HSV RR activity was determined as the ability of the enzyme to catalyze the reduction of tritiated cytidine-diphosphate to deoxyribo-cytidine-diphosphate in 30 minutes at 37° C. in the presence of dithiothreitol and MgCl2. Activity of oligopeptide inhibitors was determined by adding them to the reaction mix at the beginning of the incubation. Enzyme was not preincubated with inhibitor.
Oligopeptides were synthesized by either the solid phase method of Merrified, op. cit., or by FMOC chemistry (John Morrow Stewart and Janis Dillaha Young, "Solid Phase Peptide Synthesis," 2nd ed, 1984, Pierce Chemical Co., Rockford, IL.) and purified to >98% homogeneity by reverse phase HPLC and recovered by lyophilization as trifluoroacetic acid salts. These were analyzed for amino acid composition and in some cases sequenced. Dry peptides were resuspended in 100 mM HEPES (pH 8.0) at about 2 mM, relyophilized, and stored in aliquots at -80° C. Immediately prior to use they were rehydrated with distilled H2 O and centrifuged to remove any undissolved peptide. The concentrations of these stock solutions were then determined by measuring A291 nm at basic pH (ε=2.55) for tyrosine-containing peptides and by quantitative amino acid composition for those peptides without tyrosine.
The compound `CN[C@@H](Cc1ccc(O)cc1)C(=O)N[C@H](C(=O)N[C@H](C(=O)N[C@@H](CC(N)=O)C(=O)N[C@@H](CC(=O)O)C(=O)N[C@@H](CC(C)C)C(=O)O)C(C)C)C(C)C` [MeNY V V N D L] (H-[NMeY]VVNDL-OH) showed an IC50 of 12 µM.

Compound `COc1ccc(C[C@H](N)C(=O)N[C@H](C(=O)N[C@H](C(=O)N[C@@H](CC(N)=O)C(=O)N[C@@H](CC(=O)O)C(=O)N[C@@H](CC(C)C)C(=O)O)C(C)C)C(C)C)cc1` [MeOY V V N D L] (H-Y(Me)VVNDL-OH) gave an IC50 of 20 µM.

Consider `CC(C)C[C@H](NC(=O)[C@H](CC(=O)O)NC(=O)C(C)(C)NC(=O)[C@@H](NC(=O)[C@@H](NC(=O)[C@H](C)NC(=O)CNC(=O)[C@H](C)NC(=O)[C@@H](N)Cc1ccc(O)cc1)C(C)C)C(C)C)C(=O)O` [Y A G A V V J D L] (H-YAGAVV[Aib]DL-OH), for which it took 200 µM to reach half-maximal inhibition (IC50).

With `CC(C)C[C@H](NC(=O)[C@H](CC(=O)O)NC(=O)[C@H](CC(N)=O)NC(=O)[C@@H](NC(=O)[C@@H](NC(=O)[C@H](Cc1ccc(O)cc1)NC(=O)CCCCNC(=O)[C@@H](N)Cc1ccc(O)cc1)C(C)C)C(C)C)C(=O)O` [YBY V V N D L] (H-Y[Ava]YVVNDL-OH), the IC50 was determined as 20 µM.

With `CC(C)C[C@H](NC(=O)[C@H](CC(=O)O)NC(=O)[C@H](CC(N)=O)NC(=O)[C@@H](NC(=O)[C@@H](NC(=O)CCc1ccc(O)cc1)C(C)C)C(C)C)C(=O)O` [desNH2Y V V N D L], inhibition was half-maximal at 24 µM (IC50).

Turning to `CC(C)C[C@H](NC(=O)[C@H](CC(=O)O)NC(=O)[C@H](CC(N)=O)NC(=O)[C@@H](NC(=O)[C@@H](NC(=O)[C@H](C)NC(=O)CCc1ccc(O)cc1)C(C)C)C(C)C)C(=O)O` [desNH2YA V V N D L] (Desaminotyrosyl-AVVNDL-OH), it took 160 µM to reach half-maximal inhibition (IC50).

The compound AAAVVNDL [A AA V V N D L] showed an IC50 of 77 µM. This IC50 is about 2.1-fold lower than that of the compound before.

The compound AVVDDL [A V V D D L] showed a half-inhibitory concentration (IC50) of 195 µM.

Ac-YVVNDL [AcY V V N D L] showed an IC50 of 18 µM.

As to FAGAVVNDL [FA G A V V N D L], it took 56 µM to reach half-maximal inhibition (IC50).

Regarding FVVNDL [F V V N D L], the half-inhibitory concentration (IC50) was found to be 65 µM.

With HVVNDL [H V V N D L], the 50% inhibitory concentration (IC50) was 46 µM.

In turn, KKLEEFLKVVNDL [K K L E E FLK V V N D L] displayed a half-inhibitory concentration (IC50) of 200 µM. This IC50 lies about 4.3-fold higher than the previous one.

In turn, WVVNDL [W V V N D L] yielded an IC50 of 17 µM.

For YAAVVNDL [YAA V V N D L], inhibition was half-maximal at 112 µM (IC50).

For the compound YAGYVVNDL [Y A G Y V V N D L], the half-inhibitory concentration (IC50) was 8 µM.

YAPAVVNDL [Y A PA V V N D L] registered a half-inhibitory concentration (IC50) of 14 µM.

In turn, YVVNDL [Y V V N D L] showed an IC50 of 15 µM. This IC50 and that of the compound before are within 1.5-fold of each other.

Another test has as its target T1, ribonucleotide reductase enzyme of herpes simplex virus (Human herpesvirus 1, UniProt P08543).
T1 sequence (P08543 whole entry, looked up): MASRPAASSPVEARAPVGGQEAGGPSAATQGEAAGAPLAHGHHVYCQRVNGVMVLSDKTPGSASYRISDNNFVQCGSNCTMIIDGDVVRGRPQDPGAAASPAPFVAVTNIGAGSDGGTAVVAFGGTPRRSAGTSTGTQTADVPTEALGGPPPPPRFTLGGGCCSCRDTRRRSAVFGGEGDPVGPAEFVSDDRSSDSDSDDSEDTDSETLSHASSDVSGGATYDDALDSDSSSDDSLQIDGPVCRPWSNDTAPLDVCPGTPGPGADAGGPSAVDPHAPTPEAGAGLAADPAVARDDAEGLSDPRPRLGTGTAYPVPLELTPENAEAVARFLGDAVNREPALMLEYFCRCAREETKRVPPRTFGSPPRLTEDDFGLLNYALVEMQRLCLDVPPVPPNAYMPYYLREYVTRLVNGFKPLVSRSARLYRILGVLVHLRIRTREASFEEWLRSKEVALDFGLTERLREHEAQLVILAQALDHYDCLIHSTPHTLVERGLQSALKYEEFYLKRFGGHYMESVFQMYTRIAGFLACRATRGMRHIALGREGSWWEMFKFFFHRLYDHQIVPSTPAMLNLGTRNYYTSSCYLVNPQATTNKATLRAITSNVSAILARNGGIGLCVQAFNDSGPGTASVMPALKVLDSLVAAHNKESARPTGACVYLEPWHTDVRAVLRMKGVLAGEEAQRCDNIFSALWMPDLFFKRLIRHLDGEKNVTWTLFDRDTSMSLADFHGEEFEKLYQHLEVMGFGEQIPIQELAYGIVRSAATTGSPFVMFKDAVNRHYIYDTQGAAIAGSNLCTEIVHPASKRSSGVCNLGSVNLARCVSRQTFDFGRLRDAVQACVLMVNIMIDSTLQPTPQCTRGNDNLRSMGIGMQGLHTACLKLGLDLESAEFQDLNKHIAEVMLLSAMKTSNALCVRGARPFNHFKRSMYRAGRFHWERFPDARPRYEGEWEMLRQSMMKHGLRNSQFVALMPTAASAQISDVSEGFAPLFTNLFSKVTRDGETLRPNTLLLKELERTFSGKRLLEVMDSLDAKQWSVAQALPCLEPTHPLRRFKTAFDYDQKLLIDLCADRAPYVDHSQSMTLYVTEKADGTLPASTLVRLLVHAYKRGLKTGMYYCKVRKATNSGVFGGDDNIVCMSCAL
Experiment: not given
The settings on record: Dutia et al. and Cohen et al., Nature 321 (1986); cited from earlier work.
For “YGAVVNDL [8-desalanine homolog of the nonapeptide, Dutia et al]”, the “inhibition in vitro of enzyme activity” value was “inhibited”.

The target of a further test is ribonucleotide reductase enzyme of herpes simplex virus (Human herpesvirus 1, UniProt P08543).
Experiment: not given
Particulars: Dutia et al. and Cohen et al., Nature 321 (1986); cited from earlier work.
For the compound Tyr Ala Gly Ala Val Val Asn Asp Leu, the “inhibition in vitro of enzyme activity” value is reported as “inhibited”.

Values taken from patent US4814432A, “Inhibitor of ribonucleotide reductase” (priority 1987, dated 1989).
